# Assay results reported in patent US20230131966A1, “FUNGICIDAL AMIDES” (FMC Corporation, priority 2020, published 2023).
# Assays:
# Type in all cases: in vivo
# [1] = system: Zymoseptoria tritici; assay: Test C: wheat leaf blotch control on wheat seedlings; conditions: 250 ppm; wheat seedlings; 100 = 100% disease control, 0 = no control
# [2] = system: Phytophthora infestans; assay: whole plant or invertebrate; conditions: 250 ppm; tomato seedlings; 100 = 100% disease control, 0 = no control
# [3] = system: Botrytis cinerea; assay: Test E: tomato Botrytis control on tomato seedlings; conditions: 250 ppm, 100 = 100% disease control, 0 = no control
# [4] = system: Plasmopara viticola; assay: Test D: grape downy mildew control on grape seedlings; conditions: 250 ppm, 100 = 100% disease control, 0 = no control
# [5] = system: Phakopsora pachyrhizi; assay: Test A: Asian soybean rust control on soybean seedlings; conditions: 250 ppm; soybean seedlings; 100 = 100% disease control, 0 = no control
# [6] = system: Puccinia recondita f. sp. tritici; assay: Test B: wheat leaf rust control on wheat seedlings; conditions: 250 ppm; wheat seedlings; 100 = 100% disease control, 0 = no control
# [7] = system: Erysiphe graminis f. sp. tritici; assay: Test G: wheat powdery mildew control on wheat seedlings; conditions: 250 ppm, 100 = 100% disease control, 0 = no control
Structure (SMILES),Test C disease control rating [1] [%],Test F disease control rating [2] [%],Test E disease control rating [3] [%],Test D disease control rating [4] [%],Test A disease control rating [5] [%],Test B disease control rating [6] [%],Test G disease control rating [7] [%]
"COc1ccnc(C(=O)N[C@@H](C)C(=O)OC(C)c2cccc(-c3ccccc3)c2)c1O (single isomer, unassigned) [Compound 4]",28,0,31,56,99,41,0
"COc1cccc(C(=O)N[C@@H](C)C(=O)OC(C)c2ccccc2Cc2ccccc2)c1OC(C)=O (single isomer, unassigned) [Compound 7]",0,0,0,35,0,0,0
"COc1ccnc(C(=O)N[C@@H](C)C(=O)OC(C)c2ccccc2Cc2ccc(F)cc2)c1OC(C)=O (single isomer, unassigned) [Compound 11]",13,0,0,30,0,19,0
"COc1ccnc(C(=O)N[C@@H](C)C(=O)OC(C)c2ccccc2Cc2ccc(F)cc2)c1OC(C)=O (single isomer, unassigned) [Compound 22]",85,0,0,61,100,99,0
"COc1ccnc(C(=O)N[C@@H](C)C(=O)OC(C)c2ccc(F)cc2Cc2ccccc2)c1O (single isomer, unassigned) [Compound 23]",95,0,0,44,100,97,0
"COc1ccnc(C(=O)N[C@@H](C)C(=O)OC(C)c2ccc(F)cc2Cc2ccccc2)c1O (single isomer, unassigned) [Compound 24]",5,0,0,61,97,68,0
"COc1ccnc(C(=O)N[C@@H](C)C(=O)OC(C)c2ccc(F)cc2Cc2ccccc2)c1OC(C)=O (single isomer, unassigned) [Compound 37]",89,0,0,29,100,99,0
"COc1ccnc(C(=O)N[C@@H](C)C(=O)OC(C)c2ccc(F)cc2Cc2ccccc2)c1OC(C)=O (single isomer, unassigned) [Compound 38]",53,0,0,44,0,41,0
"COc1ccnc(C(=O)N[C@@H](C)C(=O)OC(C)c2ccccc2Cc2ccc(F)cc2)c1O (single isomer, unassigned) [Compound 39]",87,0,57,16,100,100,0
"COc1ccnc(C(=O)N[C@@H](C)C(=O)OC(C)c2ccccc2Oc2ccc(F)cc2)c1OC(C)=O (single isomer, unassigned) [Compound 57]",88,0,0,16,99,98,0
"COc1ccnc(C(=O)N[C@@H](C)C(=O)OC(C)c2ccc(F)cc2Cc2ccc(F)cc2)c1OC(C)=O (single isomer, unassigned) [Compound 58]",86,0,0,27,98,99,0
"COc1ccnc(C(=O)N[C@@H](C)C(=O)OC(C)c2cccc3ccccc23)c1OC(C)=O (single isomer, unassigned) [Compound 116]",95,0,0,55,100,100,0
"COc1ccnc(C(=O)N[C@@H](C)C(=O)OC(C)c2ccc(CC3CCCCC3)cc2)c1OC(C)=O (single isomer, unassigned) [Compound 128]",83,0,0,57,95,90,0
"COc1ccnc(C(=O)N[C@@H](C)C(=O)OC(C)c2ccc(CC3CCCCC3)cc2)c1OC(C)=O (single isomer, unassigned) [Compound 129]",91,0,0,32,100,100,0
"CCC(OC(=O)[C@H](C)NC(=O)c1nccc(OC)c1OC(C)=O)c1ccc(C2CCCCC2)cc1 (single isomer, unassigned) [Compound 130]",12,0,0,9,96,74,0
"CCC(OC(=O)[C@H](C)NC(=O)c1nccc(OC)c1OC(C)=O)c1ccc(C2CCCCC2)cc1 (single isomer, unassigned) [Compound 131]",87,0,0,6,100,96,89
"CCC(OC(=O)[C@H](C)NC(=O)c1nccc(OC)c1OCOC(=O)C(C)C)c1ccc(C2CCCCC2)cc1 (single isomer, unassigned) [Compound 132]",30,0,0,29,75,68,0
"CCC(OC(=O)[C@H](C)NC(=O)c1nccc(OC)c1OCOC(=O)C(C)C)c1ccc(C2CCCCC2)cc1 (single isomer, unassigned) [Compound 133]",93,0,0,24,100,99,0
"CCC(OC(=O)[C@H](C)NC(=O)c1nccc(OC)c1OCOC(C)=O)c1ccc(C2CCCCC2)cc1 (single isomer, unassigned) [Compound 134]",64,0,0,33,97,74,0
